Where two headings read alike, the source gives them in different places.
Molecular target: T1, recombinant human ACC2 (Homo sapiens, UniProt O00763)
T1 construct: a full length Cytomax clone of ACC2 was purchased from Cambridge Bioscience Limited; made in house; host or cells: CHO cells (tetracycline induction, pcDNA5 FRT TO-TOPO); purified on a Softlink Soft Release Avidin column
Experiment: Measurement of human ACC2 inhibition (recombinant hACC2 Transcreener ADP detection FP assay)
Type: biochemical
Procedure: [3] Measurement of human ACC2 inhibition. Human ACC2 inhibition was measured using purified recombinant human ACC2 (hrACC2). […] The ACC2 was expressed in CHO cells by tetracycline induction and harvested in 5 liters of DMEM/F12 with glutamine, biotin, hygromycin and blasticidin with 1 μg/mL tetracycline (Invitrogen, Carlsbad, Calif.). The conditioned medium containing ACC2 was then applied to a Softlink Soft Release Avidin column (Promega, Madison, Wis.) and eluted with 5 mM biotin. […] The purified ACC2 was dialyzed in 50 mM Tris, 200 mM NaCl, 4 mM DTT, 2 mM EDTA, and 5% glycerol. […] The final conditions for the assay were 50 mM HEPES, pH7.5, 5 mM MgCl2, 5 mM tripotassium citrate, 2 mM DTT, 0.5 mg/mL BSA, 30 μM acetyl-CoA, 50 μM ATP, and 8 mM KHCO3. Typically, a 10 μl reaction was run for 1 hour at room temperature, and 10 μl of Transcreener stop and detect buffer was added and incubated for an additional 1 hour.

[1] = recombinant hACC2 transcreener assay, read-out: rhACC2 IC50

T1 sequence (O00763 whole entry): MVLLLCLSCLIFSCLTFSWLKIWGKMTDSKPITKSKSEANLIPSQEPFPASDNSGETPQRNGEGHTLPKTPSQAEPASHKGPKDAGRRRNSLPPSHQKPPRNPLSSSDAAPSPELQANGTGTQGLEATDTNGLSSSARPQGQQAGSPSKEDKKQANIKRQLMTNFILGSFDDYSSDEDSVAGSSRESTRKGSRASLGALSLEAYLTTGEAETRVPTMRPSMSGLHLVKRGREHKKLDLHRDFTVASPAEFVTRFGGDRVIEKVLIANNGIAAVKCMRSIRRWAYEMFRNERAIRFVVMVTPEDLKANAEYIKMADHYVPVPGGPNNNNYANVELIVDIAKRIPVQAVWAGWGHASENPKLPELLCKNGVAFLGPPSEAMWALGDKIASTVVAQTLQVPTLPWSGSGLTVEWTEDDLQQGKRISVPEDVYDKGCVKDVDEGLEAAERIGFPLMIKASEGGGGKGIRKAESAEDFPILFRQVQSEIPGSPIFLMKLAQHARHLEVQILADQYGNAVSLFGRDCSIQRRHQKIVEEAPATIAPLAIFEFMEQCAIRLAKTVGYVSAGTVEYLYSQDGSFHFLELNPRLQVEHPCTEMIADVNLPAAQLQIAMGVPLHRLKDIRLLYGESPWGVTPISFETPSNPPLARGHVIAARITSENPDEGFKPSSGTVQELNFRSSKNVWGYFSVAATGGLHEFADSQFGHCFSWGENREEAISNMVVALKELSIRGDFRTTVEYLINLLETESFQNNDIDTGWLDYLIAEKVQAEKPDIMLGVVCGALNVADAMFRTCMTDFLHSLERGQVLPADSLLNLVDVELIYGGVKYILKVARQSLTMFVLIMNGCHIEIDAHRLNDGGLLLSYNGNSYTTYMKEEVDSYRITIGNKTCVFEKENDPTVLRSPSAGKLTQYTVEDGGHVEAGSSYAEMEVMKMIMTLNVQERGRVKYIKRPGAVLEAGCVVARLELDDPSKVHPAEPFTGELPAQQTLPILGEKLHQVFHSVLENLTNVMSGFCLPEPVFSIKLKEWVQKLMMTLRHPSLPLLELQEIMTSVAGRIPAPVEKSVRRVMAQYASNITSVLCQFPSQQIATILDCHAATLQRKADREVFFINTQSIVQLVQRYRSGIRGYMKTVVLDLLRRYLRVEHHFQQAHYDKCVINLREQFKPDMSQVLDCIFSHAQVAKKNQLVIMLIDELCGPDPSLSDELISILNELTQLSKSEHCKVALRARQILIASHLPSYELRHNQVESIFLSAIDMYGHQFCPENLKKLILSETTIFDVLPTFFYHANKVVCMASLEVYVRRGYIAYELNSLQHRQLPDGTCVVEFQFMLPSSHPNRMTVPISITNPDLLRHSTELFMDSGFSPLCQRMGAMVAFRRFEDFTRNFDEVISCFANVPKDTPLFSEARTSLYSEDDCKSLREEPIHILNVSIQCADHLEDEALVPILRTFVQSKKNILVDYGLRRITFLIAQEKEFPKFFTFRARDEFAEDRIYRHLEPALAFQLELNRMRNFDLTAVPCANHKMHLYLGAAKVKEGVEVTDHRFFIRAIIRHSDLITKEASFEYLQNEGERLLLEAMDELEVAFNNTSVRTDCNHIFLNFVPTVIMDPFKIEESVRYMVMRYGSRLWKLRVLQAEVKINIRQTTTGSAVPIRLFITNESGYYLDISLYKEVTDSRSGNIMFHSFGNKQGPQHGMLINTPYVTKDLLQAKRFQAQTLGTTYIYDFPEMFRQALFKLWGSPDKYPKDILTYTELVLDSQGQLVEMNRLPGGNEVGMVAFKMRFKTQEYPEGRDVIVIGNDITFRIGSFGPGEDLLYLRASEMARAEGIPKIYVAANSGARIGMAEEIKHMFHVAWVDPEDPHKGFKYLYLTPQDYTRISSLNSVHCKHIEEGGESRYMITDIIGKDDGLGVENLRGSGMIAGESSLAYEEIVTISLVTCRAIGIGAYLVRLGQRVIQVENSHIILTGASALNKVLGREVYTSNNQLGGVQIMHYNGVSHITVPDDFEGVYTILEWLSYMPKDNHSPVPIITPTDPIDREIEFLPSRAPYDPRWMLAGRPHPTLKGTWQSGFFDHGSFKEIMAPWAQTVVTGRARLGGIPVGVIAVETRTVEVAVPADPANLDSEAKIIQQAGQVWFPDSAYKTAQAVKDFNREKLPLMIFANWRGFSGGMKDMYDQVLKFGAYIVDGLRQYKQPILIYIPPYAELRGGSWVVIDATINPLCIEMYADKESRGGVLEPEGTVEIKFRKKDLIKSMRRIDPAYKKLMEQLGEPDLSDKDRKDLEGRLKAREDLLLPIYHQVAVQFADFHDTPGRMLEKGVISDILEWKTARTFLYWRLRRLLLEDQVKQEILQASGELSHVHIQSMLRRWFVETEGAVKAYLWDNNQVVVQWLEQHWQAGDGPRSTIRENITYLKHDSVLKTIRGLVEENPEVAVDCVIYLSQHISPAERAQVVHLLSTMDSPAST

SMILES	IC50 [1] [nM]	IC50 [nM]
CCc1cc(C(=O)N2CCC3(CC2)CC(=O)c2nn(CC)cc2O3)cc2c(C)n[nH]c12 [1.100]	36	
CCc1n[nH]c2c(Cl)cc(C(=O)N3CCC4(CC3)CC(=O)c3nn(CC)cc3O4)cc12 [1.101]	45	
CCn1cc2c(n1)C(=O)CC1(CCN(C(=O)c3cc(C)c4[nH]nc(Cl)c4c3)CC1)O2 [1.108]	19	
CCCn1cc2c(n1)C(=O)CC1(CCN(C(=O)c3cc(C)c4[nH]nc(Cl)c4c3)CC1)O2 [1.109]	12	
CCn1nc2c(c1C)OC1(CCN(C(=O)c3cc(Cl)c4[nH]nc(C)c4c3)CC1)CC2=O [1.111]	12	
CCn1nc2c(c1C)OC1(CCN(C(=O)c3ccc4c(cnn4C)c3)CC1)CC2=O [1.112]	79	
CCOc1cc(C(=O)N2CCC3(CC2)CC(=O)c2nn(CC)cc2O3)cc2c(C)n[nH]c12 [1.115]	12	
CCOc1cc(C(=O)N2CCC3(CC2)CC(=O)c2nn(CC)c(C)c2O3)cc2c(C)n[nH]c12 [1.118]	27	
Cc1c2c(nn1C)C(=O)CC1(CCN(C(=O)c3ccc4c(cnn4C)c3)CC1)O2 [1.124]	> 3000	
COc1cc(C(=O)N2CCC3(CC2)CC(=O)c2nn(C4CCC4)c(C)c2O3)cc2cn[nH]c12 [1.127]	20	
Cc1cc(C(=O)N2CCC3(CC2)CC(=O)c2nn(CC(C)C)c(C)c2O3)cc2cn[nH]c12 [1.130]	13	
COc1cc(C(=O)N2CCC3(CC2)CC(=O)c2nn(CC(C)C)c(C)c2O3)cc2cn[nH]c12 [1.131]	19	
COc1cc(C(=O)N2CCC3(CC2)CC(=O)c2nn(CC(C)C)c(C)c2O3)cc2c(C)n[nH]c12 [1.132]	13	
CCC(C)n1cc2c(n1)C(=O)CC1(CCN(C(=O)c3ccc4[nH]ncc4c3)CC1)O2 (centres unmarked) [1.142]	20	
Cc1cc(C(=O)N2CCC3(CC2)CC(=O)c2nn(C4CC4)cc2O3)cc2cn[nH]c12 [1.144]	19	
Cn1ncc2cc(C(=O)N3CCC4(CC3)CC(=O)c3nn(C(C)(C)C)cc3O4)ccc21 [1.145]	26	
Cc1n[nH]c2cc(C(=O)N3CCC4(CC3)CC(=O)c3nn(C(C)C)cc3O4)ccc12 [2.005]	33	
CC(C)n1cc2c(n1)C(=O)CC1(CCN(C(=O)c3cc(Cl)c4cn[nH]c4c3)CC1)O2 [2.006]	13	
CCc1nn(C)c2cc(C(=O)N3CCC4(CC3)CC(=O)c3nn(C(C)C)cc3O4)ccc12 [2.007]	14	
CCc1nn(C)c2cc(C(=O)N3CCC4(CC3)CC(=O)c3nn(CC)cc3O4)ccc12 [2.008]	81	
Cc1n[nH]c2cc(C(=O)N3CCC4(CC3)CC(=O)c3nn(C(C)(C)C)cc3O4)ccc12 [2.010]	28	
CCn1nc2c(c1C)OC1(CCN(C(=O)c3ccc4cn[nH]c4c3)CC1)CC2=O [2.011]	82	
Cn1ncc2ccc(C(=O)N3CCC4(CC3)CC(=O)c3nn(C(C)(C)C)cc3O4)cc21 [2.013]	19	
CC(C)(C)n1cc2c(n1)C(=O)CC1(CCN(C(=O)c3cc(F)c4cn[nH]c4c3)CC1)O2 [2.014]	28	
CC(C)n1cc2c(n1)C(=O)CC1(CCN(C(=O)c3cc(F)c4cn[nH]c4c3)CC1)O2 [2.015]	136	

SMILES	IC50 [1] [nM]	IC50 [nM]
CCn1nc2c(c1C)OC1(CCN(C(=O)c3cc(F)c4cn[nH]c4c3)CC1)CC2=O [2.016]	200	
CC(C)(C)n1cc2c(n1)C(=O)CC1(CCN(C(=O)c3ccc4cn[nH]c4c3F)CC1)O2 [2.017]	52	
Cc1cc(C(=O)N2CCC3(CC2)CC(=O)c2nn(C(C)(C)C)cc2O3)cc2[nH]ncc12 [2.018]	33	
COc1c(C(=O)N2CCC3(CC2)CC(=O)c2nn(C(C)(C)C)cc2O3)ccc2cn[nH]c12 [2.020]	27	
CCn1nc2c(c1C)OC1(CCN(C(=O)c3ccc4cn[nH]c4c3OC)CC1)CC2=O [2.021]	70	
COc1c(C(=O)N2CCC3(CC2)CC(=O)c2nn(C(C)C)cc2O3)ccc2cn[nH]c12 [2.022]	47	
CCn1cc2c(n1)C(=O)CC1(CCN(C(=O)c3ccc4c(C)n[nH]c4c3)CC1)O2 [2.024]	60	
CCn1nc2c(c1C)OC1(CCN(C(=O)c3ccc4c(C)n[nH]c4c3)CC1)CC2=O [2.025]	44	
Cc1nc2c(C)cc(C(=O)N3CCC4(CC3)CC(=O)c3nn(C(C)C)cc3O4)cc2[nH]1 [3.001]	28	
CCn1nc2c(c1C)OC1(CCN(C(=O)c3cc(C)c4nc(C)[nH]c4c3)CC1)CC2=O [3.002]	54	
CCn1cc2c(n1)C(=O)CC1(CCN(C(=O)c3cc(C)c4nc(C)[nH]c4c3)CC1)O2 [3.004]	111	
CCn1nc2c(c1C)OC1(CCN(C(=O)c3cc(C)c4nc[nH]c4c3)CC1)CC2=O [3.005]		79
Cc1cc(C(=O)N2CCC3(CC2)CC(=O)c2nn(C4CCC4)cc2O3)cc2[nH]cnc12 [3.006]	55	
Cc1cc(C(=O)N2CCC3(CC2)CC(=O)c2nn(C(C)C)cc2O3)cc2[nH]cnc12 [3.007]	24	
Cc1cc(C(=O)N2CCC3(CC2)CC(=O)c2nn(C(C)C)cc2O3)cc2c1ncn2C [3.009]	22	
CC(C)(C)n1cc2c(n1)C(=O)CC1(CCN(C(=O)c3ccc4nc[nH]c4c3)CC1)O2 [3.010]	12	
Cc1nc2ccc(C(=O)N3CCC4(CC3)CC(=O)c3nn(C(C)(C)C)cc3O4)cc2[nH]1 [3.011]	15	
Cc1nc2ccc(C(=O)N3CCC4(CC3)CC(=O)c3nn(C(C)C)cc3O4)cc2[nH]1 [3.012]	129	
CCn1nc2c(c1C)OC1(CCN(C(=O)c3ccc4nc(C)[nH]c4c3)CC1)CC2=O [3.013]	211	
Cn1cnc2ccc(C(=O)N3CCC4(CC3)CC(=O)c3nn(C(C)(C)C)cc3O4)cc21 [3.014]	21	
CC(C)n1cc2c(n1)C(=O)CC1(CCN(C(=O)c3ccc4ncn(C)c4c3)CC1)O2 [3.015]	153	
CCn1nc2c(c1C)OC1(CCN(C(=O)c3ccc4ncn(C)c4c3)CC1)CC2=O [3.016]	271	
Cc1cc(C(=O)N2CCC3(CC2)CC(=O)c2nn(C(C)C)c(C)c2O3)cc2[nH]cnc12 [3.017]	14	
CCn1nc2c(c1C)OC1(CCN(C(=O)c3cc(F)c4nc(C)[nH]c4c3)CC1)CC2=O [3.018]	105	

More lines, in order of falling IC50 [1], values ahead:

IC50 [1] [nM]	SMILES	IC50 [nM]
10	CCc1cc(C(=O)N2CCC3(CC2)CC(=O)c2nn(CC)c(C)c2O3)cc2c(C)n[nH]c12 [1.113]	
10	Cc1n[nH]c2c(C)cc(C(=O)N3CCC4(CC3)CC(=O)c3nn(CC(C)C)cc3O4)cc12 [1.134]	
8	Cc1cc(C(=O)N2CCC3(CC2)CC(=O)c2nn(C4CCC4)cc2O3)cc2c(Cl)n[nH]c12 [1.106]	
8	Cc1cc(C(=O)N2CCC3(CC2)CC(=O)c2nn(C4CCC4)c(C)c2O3)cc2cn[nH]c12 [1.128]	
7	CCc1n[nH]c2c(C)cc(C(=O)N3CCC4(CC3)CC(=O)c3nn(CC)c(C)c3O4)cc12 [1.125]	
7	Cc1n[nH]c2c(C)cc(C(=O)N3CCC4(CC3)CC(=O)c3nn(C5CC5)cc3O4)cc12 [1.143]	
7	CC(C)(C)n1cc2c(n1)C(=O)CC1(CCN(C(=O)c3cc(Cl)c4cn[nH]c4c3)CC1)O2 [2.009]	
7	CC(C)(C)n1cc2c(n1)C(=O)CC1(CCN(C(=O)c3ccc4cn[nH]c4c3)CC1)O2 [2.012]	
6	CCOc1cc(C(=O)N2CCC3(CC2)CC(=O)c2nn(C(C)C)cc2O3)cc2c(C)n[nH]c12 [1.120]	
6	CCOc1cc(C(=O)N2CCC3(CC2)CC(=O)c2nn(C(C)C)cc2O3)cc2c(CC)n[nH]c12 [1.121]	
6	Cc1cc(C(=O)N2CCC3(CC2)CC(=O)c2nn(C(C)(C)C)cc2O3)cc2[nH]cnc12 [3.008]	
5	Cc1n[nH]c2c(Cl)cc(C(=O)N3CCC4(CC3)CC(=O)c3nn(C(C)C)cc3O4)cc12 [1.102]	
5	CC(C)(C)n1cc2c(n1)C(=O)CC1(CCN(C(=O)c3ccc4[nH]nc(Cl)c4c3)CC1)O2 [1.103]	
5	CCOc1cc(C(=O)N2CCC3(CC2)CC(=O)c2nn(C(C)(C)C)cc2O3)cc2c(C)n[nH]c12 [1.116]	
5	CCOc1cc(C(=O)N2CCC3(CC2)CC(=O)c2nn(C(C)C)c(C)c2O3)cc2cn[nH]c12 [1.122]	
5	Cc1n[nH]c2c(C)cc(C(=O)N3CCC4(CC3)CC(=O)c3nn(CC(C)C)c(C)c3O4)cc12 [1.129]	
4	Cc1cc(C(=O)N2CCC3(CC2)CC(=O)c2nn(C(C)C)cc2O3)cc2c(Cl)n[nH]c12 [1.104]	
4	CCOc1cc(C(=O)N2CCC3(CC2)CC(=O)c2nn(C(C)(C)C)cc2O3)cc2c(CC)n[nH]c12 [1.117]	
4	Cc1c2c(nn1C(C)C)C(=O)CC1(CCN(C(=O)c3cc(Cl)c4[nH]ncc4c3)CC1)O2 [1.133]	
3	Cc1cc(C(=O)N2CCC3(CC2)CC(=O)c2nn(C4CCCC4)cc2O3)cc2c(Cl)n[nH]c12 [1.107]	
3	Cc1n[nH]c2c(Cl)cc(C(=O)N3CCC4(CC3)CC(=O)c3nn(C(C)(C)C)cc3O4)cc12 [1.110]	
3	Cc1n[nH]c2c(C)cc(C(=O)N3CCC4(CC3)CC(=O)c3nn(C5CCC5)c(C)c3O4)cc12 [1.126]	
3	COc1cc(C(=O)N2CCC3(CC2)CC(=O)c2nn(C(C)(C)C)cc2O3)cc2[nH]ncc12 [2.023]	
2	Cc1cc(C(=O)N2CCC3(CC2)CC(=O)c2nn(C(C)(C)C)cc2O3)cc2c(Cl)n[nH]c12 [1.105]	
2	CCC(C)n1cc2c(n1)C(=O)CC1(CCN(C(=O)c3cc(C)c4[nH]nc(C)c4c3)CC1)O2 (centres unmarked) [1.140]	

Reference: patent publication US8318762B2, “Pyrazolospiroketone acetyl-CoA carboxylase inhibitors” (Pfizer Inc., priority 2008, dated 2012)
